US20080207573A1, “COMPOUNDS FOR TREATING VIRAL INFECTIONS” (priority 2006, published 2008)
Like-named read-outs stand apart in the source and are kept apart here.

Legend:
HIV-1IIIB = assay: PBMC Drug Susceptibility Assay (HIV-1 p24 in supernatant); type: cell-based; conditions: Human immunodeficiency virus 1, PBMC, 168 h; Table 6; HIV-1IIIB-infected human PBMCs, seven days
Description: PBMC Drug Susceptibility Assay
Human peripheral blood mononuclear cells (PBMCS) were used to test compound antiviral activity as an indicator for clinical efficacy. PBMCs were isolated from two donors using a Ficoll-Hypaque density gradient, pooled and stimulated with PHA-L for three days. After stimulation, the cells were washed and maintained in culture medium containing IL-2. The stimulated cells were then mock-infected or batch-infected with the strain HIV-1IIIB at MOI 0.01 for one hour. Cells (unwashed) were then plated in the presence of increasing concentrations of compound and incubated for seven days. […] Compound toxicity in mock-infected cells was analyzed using the WST-1 assay.

[1] = Human Liver Microsome Assay (metabolic stability); type: in vitro ADME; conditions: human liver microsomes 0.5 mg/mL, test article 1 μM; for half-life at 1 μM: pH 7.4, read-out: Metabolic Stability in Human liver Microsomes T1/2
Method: Human Liver Microsome Assay
The microsomal fraction of liver homogenates contains endoplasmic reticulum derived cytochrome P450 enzymes that constitute the major phase I drug metabolizing enzymes. Briefly, to aid prediction of the in vivo rate of clearance of a dosed test article, an in vitro incubation containing human liver microsomes (0.5 mg/mL final protein concentration) and test article (1 μM incubation concentration) in the presence and absence of the necessary cofactor NADPH (1 mM incubation concentration) is conducted. The incubation is performed in a buffered aqueous system (100 mM potassium phosphate, pH 7.4). The concentration of the parent compound is determined using liquid chromatography coupled with tandem mass spectrometry and reported as percent remaining from a zero minute concentrations.

[2] = tested on: HIV-1 laboratory strain, NL4-3; assay: MT-4 Cytoprotection Assay (protection from HIV-induced cytopathic effect, WST-1 readout); type: cell-based
Method: MT-4 Cytoprotection Assay
(§1) The HTLV-1 transformed T cell line, MT-4, is highly susceptible to HIV-1 infection. Anti-HIV-1 agents were evaluated in this target cell line by protection from the HIV-induced cytopathic effect. In this assay, viability of both HIV-1 and mock-infected cells was assessed in a […] assay that monitors the ability of metabolically-active cells to reduce the tetrazolium salt WST-1. Cytoprotection by antiviral compounds is indicated by the positive readout of increased WST-1 cleavage.
(§2) Briefly, exponentially growing MT-4 cells were mock-infected or batch-infected with the HIV-1 laboratory strain, NL4-3, at a multiplicity of infection of 0.0005. Following a two hour infection, the cells were washed to remove unbound virus and plated in the presence of increasing concentrations of compound. After four days incubation, cytoprotection in the infected cells and compound toxicity in mock-infected cells were analyzed using the WST-1 assay.

[3] = Compound toxicity in mock-infected MT-4 cells (WST-1 assay); type: cell-based; conditions: human, read-out: TC50 (concentration of compound that results in death of 50% of the host cells)
Method: as §1, §2

[4] = tested on: HIV-1 laboratory strain, NL4-3; assay: MT-4 Cytoprotection Assay (protection from HIV-induced cytopathic effect, WST-1 readout); type: cell-based; conditions: Human immunodeficiency virus 1, NL43; Table 6, printed in the MT4 IC50 column but marked MT4 assay
[5] = Human immunodeficiency virus 1, NL43, MT4, 96 h, MT-4 cells, HIV-1 NL4-3, four days, read-out: EC50 (concentration of compound that reduces the virus induced cytopathic effect by 50% (MT-4))
[6] = Human immunodeficiency virus 1, NL43, list of representative compounds, read-out: EC50 of less than about 100 nm (representative compounds)

| Compound | IC50 (HIV-1IIIB) [nM] | Metabolic Stability in Human liver Microsomes % compound remaining at 40 minutes [1] [%] | half-life at 1 μM [1] [min] | EC50 [2, 5] [nM] | CC50 at 4 days [3] [nM] | EC50 [2, 6] [nM] | IC50 [4] [nM] |
| --- | --- | --- | --- | --- | --- | --- | --- |
| C=C(C)[C@@H]1CC[C@]2(C(=O)N[C@H](C)c3ccccn3)CC[C@]3(C)C(CCC4[C@@]5(C)CCC(OC(=O)CC(C)(C)C(=O)O)C(C)(C)C5CC[C@]43C)C12 (single isomer, unassigned) [Compound 105a] | 2.6 | 44 | 36 |  |  |  |  |
| C=C(C)[C@@H]1CC[C@]2(C(=O)N[C@@H](C)c3ccccn3)CC[C@]3(C)C(CCC4[C@@]5(C)CCC(OC(=O)CC(C)(C)C(=O)O)C(C)(C)C5CC[C@]43C)C12 (single isomer, unassigned) [Compound 105b] | 3.1 | 32 | 27 |  |  |  |  |
| C=C(C)[C@@H]1CC[C@]2(C(=O)NCc3ccncc3)CC[C@]3(C)[C@H](CC[C@@H]4[C@@]5(C)CC[C@H](O)C(C)(C)[C@@H]5CC[C@]43C)[C@@H]12 [Compound 46] |  |  |  | ~8600 | > 10000 |  |  |
| C=C(C)[C@@H]1CC[C@]2(C(=O)NCCc3ccc(OC)cc3)CC[C@]3(C)[C@H](CC[C@@H]4[C@@]5(C)CC[C@H](OC(=O)CC(C)(C)C(=O)O)C(C)(C)[C@@H]5CC[C@]43C)[C@@H]12 [Compound 70] |  |  |  | ~2.9 | > 10000 | < 100 |  |
| C=C(C)[C@@H]1CC[C@]2(C(=O)NCc3ccc(C(=O)O)cc3)CC[C@]3(C)[C@H](CC[C@@H]4[C@@]5(C)CC[C@H](OC(=O)CC(C)(C)C(=O)O)C(C)(C)[C@@H]5CC[C@]43C)[C@@H]12 [Compound 71] |  |  |  | ~126 | ~7700 |  |  |
| C=C(C)[C@@H]1CC[C@]2(C(=O)NCc3ccccc3C(=O)O)CC[C@]3(C)[C@H](CC[C@@H]4[C@@]5(C)CC[C@H](OC(=O)CC(C)(C)C(=O)O)C(C)(C)[C@@H]5CC[C@]43C)[C@@H]12 [Compound 73] |  |  |  | ~8.1 | ~6300 | < 100 |  |
| C=C(C)[C@@H]1CC[C@]2(C(=O)NCc3cccnc3)CC[C@]3(C)[C@H](CC[C@@H]4[C@@]5(C)CC[C@H](OC(=O)CC(C)(C)C(=O)O)C(C)(C)[C@@H]5CC[C@]43C)[C@@H]12 [Compound 76] |  |  |  | ~11 | > 10000 | < 100 |  |
| C=C(C)[C@@H]1CC[C@]2(C(=O)NCc3ccccn3)CC[C@]3(C)[C@H](CC[C@@H]4[C@@]5(C)CC[C@H](OC(=O)CC(C)(C)C(=O)O)C(C)(C)[C@@H]5CC[C@]43C)[C@@H]12 [Compound 83] |  | 11 | < 10 |  |  | < 100 | 4.6 |
| C=C(C)[C@@H]1CC[C@]2(C(=O)NC3(c4ccccn4)CC3)CC[C@]3(C)[C@H](CC[C@@H]4[C@@]5(C)CC[C@H](OC(=O)CC(C)(C)C(=O)O)C(C)(C)[C@@H]5CC[C@]43C)[C@@H]12 [Compound 121] | 18 | 42 | 30 |  |  | < 100 |  |
| C=C(C)[C@@H]1CC[C@]2(C(=O)NC(C)(C)c3ccccn3)CC[C@]3(C)C(CCC4[C@@]5(C)CCC(OC(=O)CC(C)(C)C(=O)O)C(C)(C)C5CC[C@]43C)C12 (stereo partly drawn) [Compound 126] | 47.5 | 47 | 38 |  |  |  |  |
